Laboratory results taken from patent US20070128217A1 (priority 2003, published 2007).

Assays:
[1] = test system: antibodies in sera from SARS patients (sera 1a, 1b, 2, 6, 37, 62, London, SARS-yellow, SARS-green); type: binding, human; design: Binding of serum 6 to linear peptides of protein X1 of SARS-CoV Urbani / Binding of serum 37 to linear peptides of protein X1 of SARS-CoV Urbani / Binding of serum 6 to looped/cyclic peptide (PEPSCAN-ELISA) / Binding of serum 37 to looped/cyclic peptide (PEPSCAN-ELISA) / Binding of serum 37 to looped/cyclic peptides of protein X1 of SARS-CoV Urbani / Binding of serum 6 to linear peptides of protein X2 / Binding of serum 37 to linear peptides of protein X2 / Binding of serum 37 to looped/cyclic peptides of protein X2 of SARS-CoV Urbani / Binding of serum 6 to linear peptides of protein M of SARS-CoV Urbani / Binding of serum 37 to linear peptides of protein M of SARS-CoV Urbani / Binding of serum 6 to looped/cyclic peptides of protein M of SARS-CoV Urbani / Binding of serum 37 to looped/cyclic peptides of protein M of SARS-CoV Urbani / Binding of serum 6 to linear peptides of protein X3 of SARS-CoV Urbani / Binding of serum 37 to linear peptides of protein X3 of SARS-CoV Urbani / Binding of serum 37 to looped/cyclic peptides of protein X3 of SARS-CoV Urbani / Binding of serum 6 to linear peptides of protein X4 of SARS-CoV Urbani / Binding of serum 37 to linear peptides of protein X4 of SARS-CoV Urbani / Binding of serum 37 to looped/cyclic peptides of protein X4 of SARS-CoV Urbani / Binding of serum 6 to linear peptides of protein X5 of SARS-CoV Urbani / Binding of serum 37 to linear peptides of protein X5 of SARS-CoV Urbani / Binding of serum 37 to looped/cyclic peptides of protein X5 of SARS-CoV Urbani / Binding of serum 6 to linear peptides of protein N of SARS-CoV Urbani / Binding of serum 37 to linear peptides of protein N of SARS-CoV Urbani / Binding of serum 6 to linear peptide (PEPSCAN-ELISA) / Binding of serum 1a to looped/cyclic peptides of protein N of SARS-CoV Urbani / Binding of serum 1b to looped/cyclic peptides of protein N of SARS-CoV Urbani / Binding of serum 2 to looped/cyclic peptides of protein N of SARS-CoV Urbani / Binding of serum 6 to looped/cyclic peptides of protein N of SARS-CoV Urbani / Binding of serum 37 to looped/cyclic peptides of protein N of SARS-CoV Urbani / Binding of serum 62 to looped/cyclic peptides of protein N of SARS-CoV Urbani / Binding of serum London to looped/cyclic peptides of protein N of SARS-CoV Urbani / Binding of serum SARS-green to looped/cyclic peptides of protein N of SARS-CoV Urbani: unit not given here
[2] = test system: control sera (pooled serum of ten healthy LUMC hospital workers; commercial negative donor pooled serum from the Dutch bloodbank); type: binding, human
[3] = test system: rabbit serum obtained by immunizing a rabbit with the SARS-CoV strain Frankfurt 1; type: binding; design: Binding of a rabbit serum to linear peptides / Binding of a rabbit serum to looped peptides / Rabbit serum linear peptides / Rabbit serum looped peptides / Binding of a rabbit serum to linear peptides of protein N of SARS-CoV Urbani (Rabbit serum linear peptides) / Binding of a rabbit serum to looped/cyclic peptides of protein N of SARS-CoV Urbani (Rabbit serum looped peptides): unit not given here

Row | Sequence | Binding of serum 1a to linear peptides of protein X2 [1] | Binding of serum 1a to looped/cyclic peptides of protein X2 of SARS-CoV Urbani [1] | Binding of serum 1b to linear peptides of protein X2 [1] | Binding of serum 1b to looped/cyclic peptides of protein X2 of SARS-CoV Urbani [1] | Binding of serum 2 to linear peptides of protein X2 [1] | Binding of serum 2 to looped/cyclic peptides of protein X2 of SARS-CoV Urbani [1] | Binding of serum 6 to linear peptides of protein X2 [1] | Binding of serum 6 to looped/cyclic peptides of protein X2 of SARS-CoV Urbani [1] | Binding of serum 37 to linear peptides of protein X2 [1] | Binding of serum 37 to looped/cyclic peptides of protein X2 of SARS-CoV Urbani [1] | Binding of serum 62 to looped/cyclic peptides of protein X2 of SARS-CoV Urbani [1] | Binding of serum London to looped/cyclic peptides of protein X2 of SARS-CoV Urbani [1] | Binding of serum SARS-green to looped/cyclic peptides of protein X2 of SARS-CoV Urbani [1] | Binding of serum SARS-yellow to looped/cyclic peptides of protein X2 of SARS-CoV Urbani [1] | Binding of Control Serum Blood-Bank to Looped peptides [2] | Binding of Control serum Blood-bank to linear peptides [2] | Binding of Control serum LUMC to linear peptides [2] | Binding of Control serum LUMC to looped peptides [2] | Binding of a rabbit serum to linear peptides [3] | Binding of a rabbit serum to looped peptides [3] | further results
1 | SSSLTSLLKTHRMCK | 0.6 | 0.3 | 0.5 | 0.4 | 0.4 | 0.1 | 0.8 | 0.1 | 0.6 | 0.2 | 0.3 | 0.1 | 0.3 | 0.5 | 0.4 | 1.0 | 0.7 | 0.4 | 0.3 | 0.2 | Binding of serum 62 to linear peptides of protein X2 [1]: 0.7; Binding of serum London to linear peptides of protein X2 [1]: 0.6; Binding of serum SARS-green to linear peptides of protein X2 [1]: 0.6; Binding of serum SARS-yellow to linear peptides of protein X2 [1]: 0.2
2 | STALQELLIQQWIQF | 0.6 | 0.6 | 0.4 | 0.5 | 0.3 | 0.4 | 0.3 | 0.2 | 0.5 | 0.4 | 0.6 | 0.2 | 0.3 | 0.5 | 0.6 | 0.6 | 0.3 | 0.7 | 0.3 | 0.4 | Binding of serum 62 to linear peptides of protein X2 [1]: 0.6; Binding of serum London to linear peptides of protein X2 [1]: 0.4; Binding of serum SARS-green to linear peptides of protein X2 [1]: 0.5; Binding of serum SARS-yellow to linear peptides of protein X2 [1]: 0.3
3 | STNLCTHSFRKKQVR | – | 0.5 | – | 0.3 | – | 0.5 | – | 0.6 | – | 0.5 | 0.5 | 0.2 | 0.2 | 0.5 | 0.5 | 0.9 | 0.8 | 0.8 | 0.7 | 0.2 | Recognition of the peptide by sera of SARS-CoV infected individuals, and form (linear, looped/cyclic) in which it is recognized [1]: recognized in linear form
